Measurements reported in patent US20200165312A1, “COSMETIC COMPOSITION FOR IMPROVING SKIN CONDITIONS COMPRISING FUSION PROTEIN INCLUDING SKIN PENETRATION ENHANCING PEPTIDE” (LG HOUSEHOLD & HEALTH CARE LTD., priority 2017, published 2020).
Where a SMILES comes first, the peptide text is derived from it. Where no end group is shown, it is not given here. The star is where a group is joined. Palmitoyl = CCCCCCCCCCCCCCCC(=O)*

Key:
dermal fibroblasts = assay: Hyaluronic acid (HA) production in dermal fibroblasts (ELISA); assay type: cell-based, human; conditions: 10 ng/mL T-VEGF or VEGF, two days; control = 100
Description: (§1) Specifically, dermal fibroblasts were inoculated onto a 24-well plate and cultured for 24 hours to obtain cultures having a saturation degree of 70 to 80%. The cultures were washed with PBS and cultured in a serum-free DMEM medium including 10 ng/mL T-PDGFa or PDGFa for two days. A supernatant was obtained therefrom and the amount of hyaluronic acid (HA) produced and released in the culture solution was quantitively analyzed using an ELISA kit (R&D Systems) (Table 5).
as §1, with “The cultures were washed with PBS and cultured in a serum-free DMEM medium including 10 ng/mL T-PDGFa or PDGFa for two days.” left out, “9).” for “5).”

dermal papilla cells = assay: Hair follicle stem cell proliferation: dermal papilla cells, Cell Counter Kit-8; assay type: cell-based; conditions: 1 ng/mL T-VEGF or VEGF, one day; control = 100
Description: (§2) Specifically, dermal papilla cells were inoculated onto a 96-well plate and cultured for 24 hours to obtain cultures at a density of 6,000 cells per well. The cultures were washed with PBS and cultured in a serum-free DMEM medium for one day. The cells were washed with PBS again and cultured in a serum-free DMEM medium supplemented with 1 ng/mL T-PDGFa or PDGFa for one day. The cultures were obtained therefrom and a difference between proliferated amounts of cells was quantitively analyzed using the Cell Counter Kit-8 (Dojindo). Here, dermal papilla cells cultured in a serum-free DMEM medium without T-PDGFa or PDGFa were used as a control (Table 6).
(§3) Specifically, dermal papilla cells were inoculated onto a 96-well plate and cultured for 24 hours to obtain cultures at a density of 6,000 cells per well. The cultures were washed with PBS and cultured in a serum-free DMEM medium for one day. […] The cultures were obtained therefrom and a difference between proliferated amounts of cells was quantitively analyzed using the Cell Counter Kit-8 (Dojindo).
as §2, with “T-IGF-1” for “T-PDGFa”, “IGF-1” for “PDGFa”, “15).” for “6).”
as §2, with “10” for “1”, “T-KGF” for “T-PDGFa”, “KGF” for “PDGFa”, “19).” for “6).”
as §2, with “10” for “1”, “T-Tβ4” for “T-PDGFa”, “Tβ4” for “PDGFa”, “23).” for “6).”

[1] = test system: human umbilical vein endothelial cells; assay: Endothelial cell proliferation, Cell Counter Kit-8; assay type: cell-based; conditions: 100 ng/mL T-VEGF or VEGF, serum-free M199, one day; control = 100
Description: as §3, with “human umbilical vein endothelial” for “dermal papilla”, “5,000” for “6,000”, “M199” for “DMEM”, “16 hours.” for “one day.”
Specifically, human umbilical vein endothelial cells were inoculated onto a 96-well plate and cultured for 24 hours to obtain cultures at a density of 5,000 cells per well. The cultures were washed with PBS and cultured in a serum-free M199 medium for 16 hours. The cells were washed with PBS again and cultured in a serum-free M199 medium supplemented with 100 ng/mL T-Tβ4 or Tβ4 for one day. The cultures were obtained therefrom and a difference between proliferated amounts of cells was quantitively analyzed using the Cell Counter Kit-8 (Dojindo). Here, human umbilical vein endothelial cells cultured in a serum-free M199 medium without T-Tβ4 or Tβ4 were used as a control (Table 22).

[2] = 2 μg in donor chamber, 16 hours, amount in receiver chamber relative to control peptide
[3] = amount present in the porcine skin by HPLC, relative to control peptide
C2C12 cells = assay: Inhibition of muscle contraction: contractions of C2C12 cells co-cultured with neuroblasts; assay type: cell-based; conditions: 50 ppm, 2 hours, medium without FBS, counted for 30 seconds; FIG. 1
Description: Then, the number of contractions of the C2C12 cells was measured for 30 second at the initial stage of cell contraction and all of the medium was removed, followed by washing three times with PBS. The cells were reacted for 2 hours in a medium supplemented with 50 ppm of the fusion peptide without the FBS. Then, the number of contractions of the C2C12 cells was measured for 30 seconds to identify the degree of inhibiting muscle contraction.

VEGF
Production (%) of hyaluronic acid (HA) (dermal fibroblasts): 220 ± 20%
Proliferation (%) (dermal papilla cells): 340 ± 50%
Proliferation (%) [1]: 170 ± 10%

CCCCCCCCCCCCCCCC(=O)N[C@@H](Cc1ccc(O)cc1)C(=O)N1CCC[C@H]1C(=O)N[C@@H](Cc1c[nH]c2ccccc12)C(=O)N[C@H](C(=O)N[C@@H](CCC(N)=O)C(=O)N[C@@H](CCCNC(=N)N)C(=O)N[C@@H](Cc1ccccc1)C(=O)N[C@@H](CC(N)=O)C(=O)NCC(=O)N[C@@H](CO)C(=O)N[C@@H](CC(C)C)C(=O)N[C@@H](CC(N)=O)C(=O)N[C@H](C(=O)N[C@@H](Cc1c[nH]cn1)C(=O)N[C@@H](CC(C)C)C(=O)N[C@@H](C)C(=O)N1CCC[C@H]1C(=O)N[C@H](C(=O)N[C@@H](CC(C)C)C(=O)O)[C@@H](C)CC)[C@@H](C)O)[C@@H](C)O [Fusion protein including [Pal]YPWTQRF] (Palmitoyl-YPWTQRFNGSLNTHLAPIL-OH)
Penetration enhancement (%) [2]: 280 ± 15%
Relative penetration (%) [3]: 6290 ± 1350%

Acetyl-Glu-Glu-Met-Gln-Arg-Arg (Ac-EEMQRR) [Argireline ™, neurotransmitter release regulating peptide used as control peptide]
number of contractions of the C2C12 cells (C2C12 cells): reduced
